Results published in patent US8361970B2, “Growth factor binding molecules” (University of South Florida, priority 2000, dated 2013).
Several values for one entry are separate records, joined by “and”; a condition that tells them apart may be missing. Equal values may be shown once. Read-outs that look alike come from different tables or passages of the source. Positions of bridges follow the written chain, without caps; N, C: chain ends. Non-standard residues stand in square brackets, D forms with d. d2Nal = N[C@H](Cc1ccc2ccccc2c1)C(=O)O; dAbu = CC[C@@H](N)C(=O)O

How the values were obtained:
Format in all cases: cell-based
[1] = test system: PDGF-stimulated PDGFR tyrosine phosphorylation; assay: Inhibition of PDGF-stimulated PDGFR tyrosine phosphorylation in NIH 3T3 cells (anti-phosphotyrosine Western blot); conditions: 5 min pretreatment, PDGF 10 ng/ml 10 min, read-out: (IC50) Inhibition PDGFR-Y-P
Description: Starved NIH 3T3 cells are pretreated with various growth factor binding agents (0-100 μM) for 5 min before stimulation with PDGF (10 ng/mL) for 10 min. The cells are then harvested and lysed, and the proteins from the lysates separated by SDS-PAGE and immunoblotted with an anti-phosphotyrosine antibody (4G10: Upstate Biotechnology, Lake Placid, N.Y.). The phosphotyrosine PDGF receptor bands are scanned, and the concentrations of growth factor binding molecules that inhibited the ability of PDGF to stimulate PDGFR tyrosine phosphorylation by 50% are determined.
(§1) Starved NIII 3T3 cells (PDGF-BB and PDGF-AA), NIH 3T3 cells overexpressing either EGFR (EGF) or Flk-1 (VEGF) are pre-treated with the indicated concentrations of GFB-111 for 5 minutes before 10 minutes of stimulation with PDGF-BB (10 ng/ml), PDGF-AA (10 ng/ml), EGF (100 ng/ml) and VEGF (50 ng/ml). Cell lysates are run on SDS-PAGE gels, then transferred to nitrocellulose and Western blotted with anti-phosphotyrosine (4G 10) or anti-phosphorylated Erk1/Erk2 (New England Biolabs).
A novel series of protein surface binding agents are prepared that bind PDGF and disrupt its signaling function. The molecules are composed of a central calix[4] arene scaffold to which is attached four peptide loop domains (FIG. 1). The peptide loop component is based on a cyclic hexapeptide in which two residues are replaced by a 3-aminomethylbenzoate dipeptide mimetic containing a 5-amino substituent for attachment to the scaffold. The resulting molecules (as shown in Table 1) contain a functionalized and variable surface approximately 500 Å^2 in area. Several peptide loop sequences are synthesized (Table 1) to provide molecular surfaces with negatively and positively charged as well as hydrophobic regions designed to bind to complementary areas on the target growth factor. To identify PDGF binding molecules from this library, a cell-based screening assay is developed with NIH 3T3 cells to detect molecules capable of blocking PDGF-BB-induced tyrosine autophosphorylation of the PDGF receptor. The ability of the identified molecules to bind PDGF-BB and inhibit interaction with its receptor is then confirmed biochemically. Starved NIH 3T3 cells are pretreated for 5 min with the synthetic molecules prior to stimulation with PDGF for 10 min. The effects of the molecules on PDGF-stimulated receptor tyrosine phosphorylation are determined by the antiphosphotyrosine Western blotting as described in Table 1. […] GFB-111 has four-fold symmetry containing 4 identical peptide loops with negative and hydrophobic residues, GlyAspGlyTyr (GDGY) (SEQ ID NO. 6), that are designed to be complementary to the PDGF surface involved in binding to PDGFR. The area of PDGF-BB that binds PDGFR is composed primarily of positive and hydrophobic residues.
Starved NIH 3T3 cells are pretreated with the various GFBs (0-100 μM) for 5 min. prior to stimulation with PDGF (10 ng/ml) for 10 min. The cells are then harvested lysed and the proteins from the lysates are separated by SDS-PAGE and immunoblotted with an anti-phosphotyrosine antibody (4G10, Upstate Biotechnology, Lake Placid, N.Y.). The phosphotyrosine PDGF receptor bands are scanned and the concentrations of GFBs that inhibit the ability of PDGF to stimulate PDGFR tyrosine phosphorylation by 50% are determined. Data for each compound is representative of at least two independent experiments. FIG. 1 illustrates the structure of growth factor binders. GFBs are synthesized as described by Park, H. D. et al., Protein surface recognition by synthetic receptors: A route to novel sub-micromolar inhibitors for chymotrypsin. J. Am. Chem. Soc. 121, 8-13 (1999); and Hamuro, Y. et al., A calixarene with four peptide loops: An antibody mimic for recognition of protein surfaces. Angew. Chemie Int. Ed. Engl. 36, 2680-2683 (1997), each herein incorporated by reference in its respective entirety.

[2] = test system: PDGF-stimulated Erk1/Erk2 activation; assay: Inhibition of PDGF-stimulated activation of MAPK Erk1/Erk2 (p44/p42) in NIH 3T3 cells; conditions: NIH 3T3, PDGF stimulated
Description: as §1
(§2) In other experiments, starved NIH 3T3 cells (PDGF-AA, PDGF-BB, aFGF, bFGF), NIH 3T3 cells overexpressing EGFR. IGF-1R or Flk-1 and the human breast carcinoma SkBr3 that overexpresses ErbB2 (HRGβ) are pretreated with GFB-111 (100 μM) for 5 min before 10 min stimulation with the indicated growth factors at the concentrations shown above and aFGF (10 ng/ml), bFGF (50 ng/ml), IGF-1 (50 ng/ml) and HRGβ (10 ng/ml). Cell lysates are then immunoblotted with anti-phospho Erk1/Erk2 as described above.

[3] = test system: IGF-1 stimulated IGF-1R tyrosine phosphorylation; assay: Inhibition of IGF-1 stimulated IGFR tyrosine phosphorylation in IGFR/3T3 cells; conditions: 100 μM; IGFR/3T3, IGF-1 stimulated
Description: (§3) The ability of the GFB library to block the ability of IGF-1 to stimulate the IFG-1 R tyrosine phosphorylation and MAP kinase activation is evaluated using the cell assay described above with IGF-1R/3T3 cells as target cell. […] A preferred embodiment of the invention is a compound that binds to an insulin-like growth factor-1, of the general structure III, wherein R is n-butyl, n-propyl, or benzyl, and X1, X2, X3, and X4 optionally comprise identical cyclic peptide loops of the general structure II, and wherein R1, R2, R3, and R4 are each amino acid side chains that define a tetrapeptide sequence, wherein said tetrapeptide is covalently attached at the amino and carboxy termini of said tetrapeptide to a 3-aminomethyl-5-aminobenzamide linking group.

[4] = test system: IGF-1 stimulated MAP kinase activation; assay: Inhibition of IGF-1 stimulated MAP kinase (p42/p44) activation in IGFR/3T3 cells; conditions: 100 μM; IGFR/3T3, IGF-1 stimulated
Description: as §2, §3

[5] = head p42/Erk2 (p42 for GFB-132 to 137), read-out: (IC50) Inhibition p42/Erk2
[6] = read-out: (IC50) Inhibition p44

Substance | IC50 [1] [µM] | IC50 [2, 5] [µM] | % Inhibition at 100 μM IGF1R-Y-P [3] | % Inhibition at 100 μM p42 [4] [%] | % Inhibition at 100 μM p44 [4] | IC50 [2, 6] [µM]
GDND [GFB-117] | 5.8 | 36 | 4.9% | 17.1 | 61.5% | 
GDDG [GFB-123] | > 50 | > 50 | 24.2% | 26.7 | 62.4% | 
GDDD [GFB-136] | 3 | 25 | 40.6% | 15.0 |  | 24
GDDG [GFB-131] |  |  | 30.2% | −6.2 | 20.0% | 
GDGY [GFB-137] | 0.4 | 2.9 | 36.0% | 5.9 | 38.2% | 47
GDDY [GFB-130] |  |  | 22.7% | −19.7 | −17.5% | 
GFB-118: But-Calix scaffold with peptide loops 4-D-2-NalDGD (SEQ ID NO. 17) ([d2Nal]DGD; linker N-C via 3‑aminomethyl‑5‑aminobenzamide; also: four loops attached to But-Calix scaffold) | 0.7 | 1.2 | 1.5% | 16.4 | 55.2% | 
GDDD [GFB-129] |  |  | 3.4% | 2.8 | 33.4% | 
GDGY [GFB-135] | 1.9 | 3.2 | 16.2% | 0.8 | 46.1% | 24
GDGY [GFB-134] | 1.9 | 2.5 | 16.8% | 4.9 | 53.5% | 2.6
GDGD [GFB-104] | > 500 | > 500 | −28.4% | −0.19 | 22.4% | 
GDAD [GFB-110] | 1.7 | 7 | 40.9% and 32.4% |  | 55.4% and 47.1% | 
PDGD [GFB-119] | 20 | 32 | 16.7% | 29.7 | 66.2% | 
GDDG [GFB-120] | 1.3 | 1.7 | 35.4% | 68.1 | 85.9% | 
GDLD [GFB-109] | 7.5 | 15 |  | 68.3 | 79.7% | 
GDDY [GFB-122] | 1.7 | 19 | 38.4% | 33.6 | 66.6% | 
GDGD [GFB-103] | > 500 | > 500 |  |  |  | 
GDGY [GFB-128] | 26 | > 50 | −12.0% | −6.1 | 38.2% | 
GFB-121: But-Calix scaffold with peptide loops 4-D-AbuDGD (SEQ ID NO. 18) ([dAbu]DGD; linker N-C via 3‑aminomethyl‑5‑aminobenzamide; also: four loops attached to But-Calix scaffold) | 5.6 | 8.5 | 33.8% | 28.3 | 62.1% | 
GKGF [GFB-115] | > 50 | > 50 | −38.3% | −12.4 | 51.9% | 
GDGY [GFB-132] | 0.4 | 2.9 | 30.2% | 11.0 | 39.4% | 3
